# Assay results taken from ChEMBL document CHEMBL1201862, “PubChem BioAssay data set” (2004).
# Activity calls are given as the source filed them.
# Columns and labels:
# [1] = cytotoxicity in MIN6 insulinoma cells, dose response, cytotoxicity control, cell-based, mouse insulinoma (AID 2122); format: functional;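 also: confirmatory high-throughput counterscreen run to flag cytotoxic compounds; mouse MIN-6 beta cells carrying an insulin promoter eGFP reporter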
# [2] = insulin promoter down-regulators in MIN6 cells, imaging, high-content screening, mouse beta cells (AID 1628); format: functional
# Cytochrome P450 2C9 = Cytochrome P450 2C9 (Homo sapiens, UniProt P11712)
# HEK293 [3] = experiment: cells; format: functional, cell-based; conditions: Homo sapiens
# HEK293 [4] = experiment: cells; format: functional, cell-based; conditions: Homo sapiens; remark: listed apart in the source
# HEK293 [5] = experiment: NOD2 signaling inhibitors in MDP-stimulated cells, cell-based, uHTS, luminescence (AID 2001); format: functional; conditions: Homo sapiens
# HEK293 [6] = experiment: NOD1 signaling inhibitors, primary screen, cell-based, luminescence, uHTS (AID 1578); format: functional; conditions: Homo sapiens
# [7] = target: Nucleotide-binding oligomerization domain-containing protein 2 (Homo sapiens, UniProt Q9HC29); experiment: NOD2 signaling inhibitors, cell-based, luminescence, uHTS, HEK293 (AID 1566); format: functional
# [8] = target: T1, Carboxy-terminal domain RNA polymerase II polypeptide A small phosphatase 1 (Homo sapiens, UniProt Q9GZU7); experiment: inhibitors of CTDSP1, concentration-response testing, biochemical assay, absorbance-based, actives from ultra-high-throughput screening (AID 540297); format: functional
# T1 sequence (Q9GZU7 whole entry): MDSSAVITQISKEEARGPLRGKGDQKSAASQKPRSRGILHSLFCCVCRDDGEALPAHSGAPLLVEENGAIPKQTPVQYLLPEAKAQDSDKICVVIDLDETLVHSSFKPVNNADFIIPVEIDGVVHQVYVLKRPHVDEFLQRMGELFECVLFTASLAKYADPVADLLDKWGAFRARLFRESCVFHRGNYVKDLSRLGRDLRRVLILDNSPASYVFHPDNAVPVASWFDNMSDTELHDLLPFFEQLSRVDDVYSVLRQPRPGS
# HEK293 [9] = experiment: cells; format: functional, cell-based; conditions: Homo sapiens; remark: listed apart in the source
# [10] = Luminescence Cell-Based Dose Response HTS to Identify Inhibitors of 5'UTR Stem-Loop Driven Prion Protein mRNA Translation in H4 Neuroglioblastoma Cells. [Related pubchem assays: 1827 (Project Summary), 1813 (Primary HTS)]; format: functional
# [11] = cytotoxicity toward DRD oncogenic fibroblasts, dose response, cell-based, non-viral oncogenic, luminescence (AID 1934); format: functional; conditions: Homo sapiens
# BJ [12] = experiment: cells; format: functional, cell-based; conditions: Homo sapiens
# [13] = inhibitors of firefly luciferase expression or activity, dose response, H4 neuroglioma cells, luminescence (AID 1990); format: functional, cell-based
# BJ [14] = experiment: cytotoxicity toward BJ-TERT fibroblasts, dose response, cell-based, RAS-independent, luminescence (AID 1933); format: functional; conditions: Homo sapiens
# [15] = inhibitors of SNCA 5'UTR-driven reporter translation, confirmation, H4 neuroglioma cells, luminescence (AID 1988); format: functional, cell-based
# Cytochrome P450 3A4 = Cytochrome P450 3A4 (Homo sapiens, UniProt P08684);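 also: CYP3A4 tested as one member of a cytochrome P450 panel screen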
# [16] = target: T2, Rac GTPase-activating protein 1 (Homo sapiens, UniProt Q9H0H5); experiment: MgcRacGAP GTPase-activating activity inhibitors, confirmation, biochemical, ADP Hunter fluorescence, primary and confirmatory (AID 624330); format: functional
# T2 sequence (Q9H0H5 whole entry): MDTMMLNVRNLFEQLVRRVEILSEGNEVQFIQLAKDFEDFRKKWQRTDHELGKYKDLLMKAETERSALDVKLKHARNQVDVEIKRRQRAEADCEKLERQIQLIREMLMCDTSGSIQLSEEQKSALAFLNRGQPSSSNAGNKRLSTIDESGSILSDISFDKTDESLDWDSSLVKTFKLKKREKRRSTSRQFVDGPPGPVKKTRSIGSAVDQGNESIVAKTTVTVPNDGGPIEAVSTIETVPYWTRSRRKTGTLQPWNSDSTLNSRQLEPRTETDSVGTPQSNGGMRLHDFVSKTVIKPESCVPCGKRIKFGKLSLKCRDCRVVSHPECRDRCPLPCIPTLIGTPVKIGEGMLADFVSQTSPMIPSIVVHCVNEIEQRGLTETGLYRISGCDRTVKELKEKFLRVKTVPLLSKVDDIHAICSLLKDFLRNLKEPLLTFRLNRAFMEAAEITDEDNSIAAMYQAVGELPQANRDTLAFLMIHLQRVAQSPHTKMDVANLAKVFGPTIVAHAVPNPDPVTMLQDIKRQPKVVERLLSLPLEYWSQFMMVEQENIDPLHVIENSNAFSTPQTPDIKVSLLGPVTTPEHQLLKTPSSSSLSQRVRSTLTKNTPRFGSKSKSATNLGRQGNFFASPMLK
# [17] = target: Glucose-6-phosphate 1-dehydrogenase (Homo sapiens, UniProt P11413); experiment: human G6PD enzyme inhibitors, dose response, selectivity assay for P. falciparum G6PD inhibitor project, biochemical, fluorescence (AID 504792); format: functional
# HEK293 [18] = experiment: cells; conditions: Homo sapiens
# HEK293 [19] = experiment: cells; conditions: Homo sapiens; remark: listed apart in the source
# Cytochrome P450 2C19 = Cytochrome P450 2C19 (Homo sapiens, UniProt P33261); experiment: Cytochrome panel assay with activity outcomes. Panel member name: p450-cyp2c19 Compounds with AC50 equal or less than 10 uM are considered active; format: functional; conditions: read-out: AC50
# Cytochrome P450 1A2 = target: T3, Cytochrome P450 1A2 (Homo sapiens, UniProt P05177);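 also: PubChem cytochrome P450 panel assay, CYP1A2 panel member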
# T3 sequence (P05177 whole entry): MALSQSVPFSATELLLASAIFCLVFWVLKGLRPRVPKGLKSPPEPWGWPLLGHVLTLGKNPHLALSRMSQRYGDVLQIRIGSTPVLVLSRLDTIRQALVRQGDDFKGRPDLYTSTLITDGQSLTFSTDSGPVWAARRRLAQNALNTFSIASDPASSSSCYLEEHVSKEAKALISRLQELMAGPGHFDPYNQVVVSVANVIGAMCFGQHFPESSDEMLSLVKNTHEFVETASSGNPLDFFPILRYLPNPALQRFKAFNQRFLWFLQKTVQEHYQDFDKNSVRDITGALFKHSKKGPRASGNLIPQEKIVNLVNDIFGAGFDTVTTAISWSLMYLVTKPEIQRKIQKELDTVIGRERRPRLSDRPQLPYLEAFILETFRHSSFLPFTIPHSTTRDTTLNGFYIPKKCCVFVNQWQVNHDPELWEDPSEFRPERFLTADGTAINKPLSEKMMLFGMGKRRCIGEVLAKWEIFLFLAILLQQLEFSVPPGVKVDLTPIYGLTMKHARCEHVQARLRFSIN
# Cytochrome P450 2C9, sequence (P11712 whole entry): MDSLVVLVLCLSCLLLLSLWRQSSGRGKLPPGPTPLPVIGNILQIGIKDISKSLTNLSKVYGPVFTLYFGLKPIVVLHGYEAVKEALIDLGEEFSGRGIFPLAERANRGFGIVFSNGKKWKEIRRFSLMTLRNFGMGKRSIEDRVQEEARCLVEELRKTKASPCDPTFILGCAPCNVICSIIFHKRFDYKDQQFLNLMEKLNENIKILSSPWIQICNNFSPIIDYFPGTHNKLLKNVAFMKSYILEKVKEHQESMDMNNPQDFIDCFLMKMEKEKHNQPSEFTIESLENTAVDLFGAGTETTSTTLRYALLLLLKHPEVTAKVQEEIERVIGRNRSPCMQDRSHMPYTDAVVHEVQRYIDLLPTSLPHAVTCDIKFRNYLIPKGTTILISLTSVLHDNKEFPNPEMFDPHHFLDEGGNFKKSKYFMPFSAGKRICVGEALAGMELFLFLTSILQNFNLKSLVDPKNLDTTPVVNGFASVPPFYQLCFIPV
# Glucose-6-phosphate 1-dehydrogenase, sequence (P11413 whole entry): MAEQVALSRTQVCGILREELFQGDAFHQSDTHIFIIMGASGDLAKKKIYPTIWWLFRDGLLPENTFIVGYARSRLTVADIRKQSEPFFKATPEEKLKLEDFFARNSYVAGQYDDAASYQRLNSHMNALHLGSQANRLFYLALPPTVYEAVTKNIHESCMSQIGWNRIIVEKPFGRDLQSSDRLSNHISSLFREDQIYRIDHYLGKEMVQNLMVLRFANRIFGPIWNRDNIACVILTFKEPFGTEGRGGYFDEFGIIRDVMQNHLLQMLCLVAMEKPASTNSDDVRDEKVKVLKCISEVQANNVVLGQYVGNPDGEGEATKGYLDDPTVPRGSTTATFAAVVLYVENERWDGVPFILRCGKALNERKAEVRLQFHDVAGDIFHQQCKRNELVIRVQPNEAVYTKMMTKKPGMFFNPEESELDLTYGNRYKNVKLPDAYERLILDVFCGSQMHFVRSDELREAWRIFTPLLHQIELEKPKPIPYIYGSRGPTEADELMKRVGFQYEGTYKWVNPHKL
# Nucleotide-binding oligomerization domain-containing protein 2, sequence (Q9HC29 whole entry, the tested form may be a part): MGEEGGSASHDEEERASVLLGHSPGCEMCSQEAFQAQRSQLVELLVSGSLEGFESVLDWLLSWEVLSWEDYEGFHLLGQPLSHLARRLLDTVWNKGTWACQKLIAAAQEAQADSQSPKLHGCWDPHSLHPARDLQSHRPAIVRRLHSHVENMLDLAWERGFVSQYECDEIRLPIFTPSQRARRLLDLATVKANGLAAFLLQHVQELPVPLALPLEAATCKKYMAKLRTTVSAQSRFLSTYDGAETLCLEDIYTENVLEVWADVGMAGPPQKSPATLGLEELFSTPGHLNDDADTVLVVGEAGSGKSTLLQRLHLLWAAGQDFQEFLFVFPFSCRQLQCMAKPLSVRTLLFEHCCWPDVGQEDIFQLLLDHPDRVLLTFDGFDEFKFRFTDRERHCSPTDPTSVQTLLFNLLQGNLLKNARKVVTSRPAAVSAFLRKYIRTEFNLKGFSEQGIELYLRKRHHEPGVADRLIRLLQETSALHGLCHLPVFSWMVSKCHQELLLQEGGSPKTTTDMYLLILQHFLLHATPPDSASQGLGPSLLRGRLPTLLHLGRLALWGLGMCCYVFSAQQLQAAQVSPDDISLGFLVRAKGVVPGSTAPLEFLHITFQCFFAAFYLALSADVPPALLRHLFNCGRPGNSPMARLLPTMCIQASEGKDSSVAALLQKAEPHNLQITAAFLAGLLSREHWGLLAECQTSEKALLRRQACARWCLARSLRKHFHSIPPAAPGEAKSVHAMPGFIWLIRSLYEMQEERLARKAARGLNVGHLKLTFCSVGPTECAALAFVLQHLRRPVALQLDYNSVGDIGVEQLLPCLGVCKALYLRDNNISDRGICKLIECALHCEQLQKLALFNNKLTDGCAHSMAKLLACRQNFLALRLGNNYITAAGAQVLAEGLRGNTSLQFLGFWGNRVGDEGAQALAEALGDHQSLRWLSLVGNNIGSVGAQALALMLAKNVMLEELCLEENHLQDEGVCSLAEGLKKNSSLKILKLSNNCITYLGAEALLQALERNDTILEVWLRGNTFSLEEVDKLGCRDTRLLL
# Cytochrome P450 3A4, sequence (P08684 whole entry): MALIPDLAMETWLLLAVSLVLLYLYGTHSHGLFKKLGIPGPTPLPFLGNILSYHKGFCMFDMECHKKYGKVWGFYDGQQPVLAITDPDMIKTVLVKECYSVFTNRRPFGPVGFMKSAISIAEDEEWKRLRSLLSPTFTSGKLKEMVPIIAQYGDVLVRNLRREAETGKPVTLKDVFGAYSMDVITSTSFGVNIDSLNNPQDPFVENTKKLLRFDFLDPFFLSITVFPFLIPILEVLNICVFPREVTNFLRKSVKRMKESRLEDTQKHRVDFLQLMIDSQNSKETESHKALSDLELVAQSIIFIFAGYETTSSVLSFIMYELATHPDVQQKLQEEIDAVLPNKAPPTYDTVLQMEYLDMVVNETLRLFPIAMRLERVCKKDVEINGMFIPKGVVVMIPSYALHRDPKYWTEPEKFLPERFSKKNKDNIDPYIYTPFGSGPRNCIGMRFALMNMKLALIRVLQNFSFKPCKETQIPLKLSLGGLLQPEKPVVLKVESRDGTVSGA
# Cytochrome P450 2C19, sequence (P33261 whole entry): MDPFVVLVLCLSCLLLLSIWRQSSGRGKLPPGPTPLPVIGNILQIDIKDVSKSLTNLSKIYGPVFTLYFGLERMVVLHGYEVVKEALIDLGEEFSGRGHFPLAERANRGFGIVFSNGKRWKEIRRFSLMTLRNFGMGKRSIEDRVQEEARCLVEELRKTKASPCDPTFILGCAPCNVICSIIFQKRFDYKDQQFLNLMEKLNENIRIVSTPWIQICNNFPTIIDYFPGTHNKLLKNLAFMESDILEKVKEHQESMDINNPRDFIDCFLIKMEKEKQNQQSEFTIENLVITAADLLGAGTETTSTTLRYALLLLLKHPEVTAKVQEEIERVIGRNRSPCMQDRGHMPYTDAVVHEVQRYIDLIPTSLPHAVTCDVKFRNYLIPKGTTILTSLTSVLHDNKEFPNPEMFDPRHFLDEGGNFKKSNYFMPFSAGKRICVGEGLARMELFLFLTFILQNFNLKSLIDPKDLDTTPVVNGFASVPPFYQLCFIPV
structure (smiles),measurement,setting,value
c1ccc2c3nc[nH]c(N4CCCC4)c-3nc2c1,IC50,[1],3.1 µM (active)
same,IC50,[2],3.72 µM (active)
CC1CCCC(C)N1C(=O)c1cc(-c2ccc(Cl)c(Cl)c2)on1 (configuration not stated),AC50,Cytochrome P450 2C9,inconclusive
Cc1cc(C(=O)Nc2ccccc2C(=O)O)ccc1NC(=O)COc1ccccc1Cl,IC50,HEK293 [3],> 20 µM (inactive)
same,IC50,HEK293 [4],> 20 µM (inactive)
same,IC50,HEK293 [5],> 20 µM (inactive)
same,EC50,HEK293 [6],> 20 µM (inactive)
same,EC50,[7],5.38 µM (active)
same,IC50,[8],6.31 µM (active)
same,IC50,HEK293 [9],> 20 µM (inactive)
O=C1C=C(c2ccccc2)C[C@H](c2cccs2)[C@H]1n1nnc([N+](=O)[O-])n1,IC50,HEK293 [3],> 20 µM (inactive)
same,EC50,[10],17.5 µM (active)
same,EC50,[11],668 nM (active)
same,IC50,HEK293 [4],> 20 µM (inactive)
same,IC50,HEK293 [5],9.37 µM (active)
same,EC50,HEK293 [6],9.57 µM (active)
same,EC50,BJ [12],1.11 µM (active)
same,EC50,[7],11 µM (active)
same,EC50,[13],6.52 µM (active)
same,IC50,HEK293 [9],> 20 µM (inactive)
same,EC50,BJ [14],681 nM (active)
same,EC50,[15],9.23 µM (active)
Cn1c(=O)c(-c2cccc(C#N)c2)nc2cnc(Oc3ccccc3)nc21,AC50,Cytochrome P450 3A4,inconclusive
COc1cc(N)c2ncccc2c1SC,IC50,[16],41.3 µM (active)
same,IC50,[17],> 80 µM (inactive)
CCCC(C)Sc1nc2c(=S)n(C)c(=O)n(C)c2[nH]1 (configuration not stated),EC50,HEK293 [18],> 59.7 µM (inactive)
same,EC50,HEK293 [19],> 59.7 µM (inactive)
O=C1C=CC(=O)N1c1ccc(-c2nc3ccccc3o2)cc1,IC50,[17],> 80 µM (inactive)
COc1ccc(NC(=O)c2ccc(-n3cccn3)nc2)c(OC)c1,AC50,Cytochrome P450 2C9,inconclusive
same,AC50,Cytochrome P450 2C19,14.1 µM (inconclusive)
same,AC50,Cytochrome P450 1A2,2.82 µM (inconclusive)
COc1ccc2c(c1[N+](=O)[O-])CCC/C2=N/OC(=O)c1cccc2ccccc12,AC50,Cytochrome P450 2C9,inconclusive
